Measured values reported in ChEMBL document CHEMBL1201862, “PubChem BioAssay data set” (2004).
Calls of active or inactive are those of the source.

Columns and labels:
[1] = target: T1, Sentrin-specific protease 6 (Homo sapiens, UniProt Q9GZR1); assay type: functional;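 further: Luminescence-based dose-response confirmatory assay of SENP6 inhibition, following up an ultra-high-throughput screen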
T1 sequence (Q9GZR1 whole entry): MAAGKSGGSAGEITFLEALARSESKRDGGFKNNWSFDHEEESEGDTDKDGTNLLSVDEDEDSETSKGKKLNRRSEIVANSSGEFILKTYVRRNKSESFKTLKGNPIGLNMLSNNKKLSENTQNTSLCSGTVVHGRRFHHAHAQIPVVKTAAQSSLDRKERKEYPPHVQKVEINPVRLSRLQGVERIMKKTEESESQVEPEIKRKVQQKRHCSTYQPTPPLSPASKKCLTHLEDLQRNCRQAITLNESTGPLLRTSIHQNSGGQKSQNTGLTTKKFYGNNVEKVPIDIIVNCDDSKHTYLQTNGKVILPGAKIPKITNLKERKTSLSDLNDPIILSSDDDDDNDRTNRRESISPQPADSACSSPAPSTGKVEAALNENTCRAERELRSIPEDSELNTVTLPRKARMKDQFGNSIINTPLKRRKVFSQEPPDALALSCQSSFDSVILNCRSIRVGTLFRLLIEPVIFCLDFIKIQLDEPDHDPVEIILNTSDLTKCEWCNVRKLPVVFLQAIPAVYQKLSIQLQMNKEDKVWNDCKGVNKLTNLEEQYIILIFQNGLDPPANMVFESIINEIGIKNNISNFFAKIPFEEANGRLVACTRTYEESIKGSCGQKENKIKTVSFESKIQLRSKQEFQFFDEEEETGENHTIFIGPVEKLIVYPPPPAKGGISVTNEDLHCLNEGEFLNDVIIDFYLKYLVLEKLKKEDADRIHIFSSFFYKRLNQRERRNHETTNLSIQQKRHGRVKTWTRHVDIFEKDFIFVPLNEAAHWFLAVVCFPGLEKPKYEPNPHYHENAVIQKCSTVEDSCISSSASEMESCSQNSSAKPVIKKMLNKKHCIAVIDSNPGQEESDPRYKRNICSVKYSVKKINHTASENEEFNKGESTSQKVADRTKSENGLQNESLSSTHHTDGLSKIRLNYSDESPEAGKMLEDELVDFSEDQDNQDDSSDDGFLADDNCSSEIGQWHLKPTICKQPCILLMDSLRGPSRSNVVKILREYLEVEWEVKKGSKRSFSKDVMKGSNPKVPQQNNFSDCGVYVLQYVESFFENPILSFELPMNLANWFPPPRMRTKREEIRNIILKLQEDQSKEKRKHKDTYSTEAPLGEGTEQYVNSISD

[2] = target: DNA (cytosine-5)-methyltransferase 1 (Homo sapiens, UniProt P26358); assay: inhibition of DNA methylation by DNMT1 – biochemical, fluorescent molecular beacon, confirmation (AID 602386); assay type: functional
Chain of DNA (cytosine-5)-methyltransferase 1 (P26358 whole entry): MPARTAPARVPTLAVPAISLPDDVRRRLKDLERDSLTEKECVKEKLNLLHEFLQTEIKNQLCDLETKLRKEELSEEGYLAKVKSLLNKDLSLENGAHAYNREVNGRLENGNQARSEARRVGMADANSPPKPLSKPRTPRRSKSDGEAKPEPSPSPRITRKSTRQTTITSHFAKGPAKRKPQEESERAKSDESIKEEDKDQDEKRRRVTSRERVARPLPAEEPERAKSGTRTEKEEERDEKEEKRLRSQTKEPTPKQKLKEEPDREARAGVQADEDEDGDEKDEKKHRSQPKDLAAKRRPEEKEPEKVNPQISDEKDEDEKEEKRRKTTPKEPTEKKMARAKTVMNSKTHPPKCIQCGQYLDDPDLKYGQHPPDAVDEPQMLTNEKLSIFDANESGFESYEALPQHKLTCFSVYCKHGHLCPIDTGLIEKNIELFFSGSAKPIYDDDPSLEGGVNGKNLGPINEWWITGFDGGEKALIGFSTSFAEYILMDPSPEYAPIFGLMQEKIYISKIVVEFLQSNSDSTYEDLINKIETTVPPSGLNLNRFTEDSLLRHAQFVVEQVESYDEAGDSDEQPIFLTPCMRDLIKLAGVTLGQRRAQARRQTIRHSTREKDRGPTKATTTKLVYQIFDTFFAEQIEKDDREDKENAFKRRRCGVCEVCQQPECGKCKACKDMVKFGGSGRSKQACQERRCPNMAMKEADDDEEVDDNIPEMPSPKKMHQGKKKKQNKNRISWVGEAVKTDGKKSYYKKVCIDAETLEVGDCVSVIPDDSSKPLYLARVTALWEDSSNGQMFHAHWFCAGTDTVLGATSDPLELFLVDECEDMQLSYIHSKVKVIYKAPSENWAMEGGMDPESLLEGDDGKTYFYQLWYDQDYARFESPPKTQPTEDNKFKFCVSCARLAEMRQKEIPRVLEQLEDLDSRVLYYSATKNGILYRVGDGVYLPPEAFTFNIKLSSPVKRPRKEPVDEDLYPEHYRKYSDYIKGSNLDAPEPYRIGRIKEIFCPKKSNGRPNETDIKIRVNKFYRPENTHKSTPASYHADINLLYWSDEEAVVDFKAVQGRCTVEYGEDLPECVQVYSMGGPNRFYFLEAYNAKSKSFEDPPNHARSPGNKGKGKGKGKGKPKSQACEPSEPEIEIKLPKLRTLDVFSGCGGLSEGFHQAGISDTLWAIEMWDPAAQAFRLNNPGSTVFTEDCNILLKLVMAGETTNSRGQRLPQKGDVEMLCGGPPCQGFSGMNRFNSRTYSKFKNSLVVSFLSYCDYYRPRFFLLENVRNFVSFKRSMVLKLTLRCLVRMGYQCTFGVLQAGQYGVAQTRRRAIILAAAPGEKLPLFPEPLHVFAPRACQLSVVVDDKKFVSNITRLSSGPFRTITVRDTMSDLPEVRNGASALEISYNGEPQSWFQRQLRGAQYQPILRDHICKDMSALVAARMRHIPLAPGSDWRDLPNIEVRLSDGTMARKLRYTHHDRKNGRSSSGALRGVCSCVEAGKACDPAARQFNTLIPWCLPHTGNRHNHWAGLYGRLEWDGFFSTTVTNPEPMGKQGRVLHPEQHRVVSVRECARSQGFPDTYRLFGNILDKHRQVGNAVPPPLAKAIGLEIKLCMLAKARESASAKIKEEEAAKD

[3] = target: T2, Endoribonuclease toxin MazF (Escherichia coli K-12, UniProt P0AE70); assay: activation of MazEF endoribonuclease cleavage – biochemical, fluorescence, single-stranded RNA substrate, uHTS hits, dose response (AID 588481); assay type: functional
T2 sequence (P0AE70 whole entry): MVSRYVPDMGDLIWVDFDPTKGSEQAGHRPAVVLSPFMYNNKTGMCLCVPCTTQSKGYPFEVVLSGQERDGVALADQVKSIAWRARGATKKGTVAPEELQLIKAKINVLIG

[4] = target: T3, Caspase-3 (Homo sapiens, UniProt P42574); assay type: functional;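 further: Dose-response selectivity test against caspase-3 for candidate inhibitors of sentrin-specific proteases (SENPs)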
T3 sequence (P42574 whole entry): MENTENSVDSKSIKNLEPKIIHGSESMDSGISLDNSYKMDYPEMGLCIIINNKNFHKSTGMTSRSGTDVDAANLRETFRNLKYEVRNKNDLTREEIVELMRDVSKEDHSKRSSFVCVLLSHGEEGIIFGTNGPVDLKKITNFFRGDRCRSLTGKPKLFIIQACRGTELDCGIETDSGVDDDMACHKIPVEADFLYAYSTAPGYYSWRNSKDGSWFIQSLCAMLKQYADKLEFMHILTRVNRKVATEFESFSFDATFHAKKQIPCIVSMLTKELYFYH

[5] = target: T4, RNA-binding protein pos-1 (Caenorhabditis elegans, UniProt G5EF15); assay: disruptors of C. elegans POS-1 RNA interaction – biochemical, fluorescence polarization, dose response (AID 1964);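 further: purified POS-1 fused to maltose binding protein made in E. coli; potency of compounds blocking POS-1 binding to fluorescent RNA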
T4 sequence (G5EF15 whole entry): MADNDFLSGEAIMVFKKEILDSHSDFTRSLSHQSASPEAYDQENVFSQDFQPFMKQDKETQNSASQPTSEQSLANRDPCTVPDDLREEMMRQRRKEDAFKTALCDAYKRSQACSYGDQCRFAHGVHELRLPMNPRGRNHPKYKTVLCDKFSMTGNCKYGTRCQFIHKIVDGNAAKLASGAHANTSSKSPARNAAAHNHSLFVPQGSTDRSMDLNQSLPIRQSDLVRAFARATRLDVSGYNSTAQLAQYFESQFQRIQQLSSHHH

[6] = target: T5, Replicative DNA helicase DnaB (Mycobacterium tuberculosis, UniProt P9WMR3); assay: DnaB intein splicing inhibitors, dose response, biochemical, cell-free fluorescence (AID 449749); assay type: functional
T5 sequence (P9WMR3 whole entry): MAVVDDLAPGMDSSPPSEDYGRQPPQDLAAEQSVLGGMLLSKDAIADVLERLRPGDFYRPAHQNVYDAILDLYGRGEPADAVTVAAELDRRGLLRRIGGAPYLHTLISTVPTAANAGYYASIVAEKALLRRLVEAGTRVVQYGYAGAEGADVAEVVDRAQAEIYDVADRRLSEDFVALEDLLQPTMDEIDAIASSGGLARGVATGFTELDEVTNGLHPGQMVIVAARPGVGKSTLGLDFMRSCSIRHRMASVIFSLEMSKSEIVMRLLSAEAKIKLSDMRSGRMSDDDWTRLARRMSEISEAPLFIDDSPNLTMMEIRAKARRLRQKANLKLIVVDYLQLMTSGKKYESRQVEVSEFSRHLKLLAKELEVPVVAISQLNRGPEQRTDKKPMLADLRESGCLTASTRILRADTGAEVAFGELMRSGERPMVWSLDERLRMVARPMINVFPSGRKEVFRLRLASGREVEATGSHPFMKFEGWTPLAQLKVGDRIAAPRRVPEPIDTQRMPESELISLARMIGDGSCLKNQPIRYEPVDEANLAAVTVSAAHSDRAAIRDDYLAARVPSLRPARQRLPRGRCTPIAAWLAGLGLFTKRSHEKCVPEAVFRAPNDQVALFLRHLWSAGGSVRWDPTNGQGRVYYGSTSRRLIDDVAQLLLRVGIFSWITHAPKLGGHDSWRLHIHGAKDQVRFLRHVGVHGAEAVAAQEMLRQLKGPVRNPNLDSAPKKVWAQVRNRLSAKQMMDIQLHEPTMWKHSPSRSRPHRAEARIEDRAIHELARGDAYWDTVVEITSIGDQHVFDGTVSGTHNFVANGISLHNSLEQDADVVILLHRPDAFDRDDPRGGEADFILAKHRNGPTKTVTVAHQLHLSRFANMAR

Row | SMILES | IC50 [1] | IC50 [2] | EC50 [3] | IC50 [4] | EC50 [5] | AC50 [6]
1 | Oc1[nH]c2ccccc2c1N=Nc1ccc(F)cc1 | 2.03 µM (active) | 19.3 µM (active) | > 99 µM (inactive) | 7.58 µM (active) | > 300 µM (not active) | 
2 | O=C1C(Nc2ccccc2)=C(N2CCCCC2)C(=O)c2ccccc21 |  |  |  |  |  | 68.5 µM (active)
